Assay results: PMC6332026, “Synthesis and Pharmacochemistry of New Pleiotropic Pyrrolyl Derivatives” (Molecules, 2015)

Molecular target: T1, interleukin-6 (IL-6) (Mus musculus, UniProt P08505)
T1 construct: purchased Cayman Item No. 583371
T1 sequence (P08505 25-211): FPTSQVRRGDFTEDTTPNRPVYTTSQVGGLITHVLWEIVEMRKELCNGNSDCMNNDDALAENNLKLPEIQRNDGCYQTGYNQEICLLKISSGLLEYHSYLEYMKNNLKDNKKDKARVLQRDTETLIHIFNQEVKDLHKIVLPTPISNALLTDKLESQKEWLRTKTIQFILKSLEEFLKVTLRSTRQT
Assay: Inhibition of interleukin-6 (immunometric double antibody sandwich EIA)
Format: biochemical
Details: compound 10 μM
Method: The assay used for the inhibition of IL-6 is based on an immunometric double antibody method (sandwich technique). […] Both compounds gave satisfactory biological responses, both in high and in low concentrations of IL-6 (Table 8).
The method was based on an immunometric double antibody sandwich technique. Each well of the microwell plate was coated with a specific for mouse IL-6 rat monoclonal antibody. Tested compounds at 10 μΜ and standards were incubated in the wells, and after rinsing, a second monoclonal antibody was added, which was conjugated with biotin and detected the captured IL-6. The recognition of double antibody sandwiches was done with HRP-conjugated streptavidin. The concentration of IL-6 was determined by measuring the enzymatic activity of HRP using the chromogenic substrate TMB (3,3′,5,5′-tetramethylbenzidine). The absorbance of the reaction product was measured at 450 nm, and the intensity of the color was directly proportional to the amount of bound HRP-streptavidin conjugate, which was proportional to the concentration of IL-6.

Structure (SMILES): O=C(c1cccs1)c1c[nH]cc1-c1cccc(Oc2ccccc2)c1 [Compound 2i, [4-(3-Phenoxyphenyl)-1H-pyrrol-3-yl](thien-2-yl)methanone]
- inhibition at 10 µM (IL-6 187.5 pg/mL): 99%
- inhibition at 10 µM (IL-6 375.0 pg/mL): 99%
- inhibition at 10 µM (IL-6 750.0 pg/mL): 98%
- inhibition at 10 µM (IL-6 1500 pg/mL): 99%

Structure (SMILES): O=C(c1ccc(Cl)cc1)c1c[nH]cc1-c1cccc2ccccc12 [Compound 2v, (4-Chlorophenyl)[4-(naphth-1-yl)-1H-pyrrol-3-yl]methanone]
- inhibition at 10 µM (IL-6 375.0 pg/mL): 99%
- inhibition at 10 µM (IL-6 750.0 pg/mL): 99%
- inhibition at 10 µM (IL-6 1500 pg/mL): 100%
